Drawing on BindingDB's records for doi:10.1016/s0167-0115(98)00050-0 (Uppsala University, 1998), this text covers Ki for three molecules.

For assay [1], the target named is Pancreatic polypeptide receptor 1 (Sus scrofa, UniProt O97505).
The target in assay [2] is Neuropeptide Y receptor type 4 (Rattus norvegicus, UniProt Q63447).
Assay [3] addresses Neuropeptide Y receptor type 4 (Homo sapiens, UniProt P50391).

Chain of Pancreatic polypeptide receptor 1 (O97505 whole entry): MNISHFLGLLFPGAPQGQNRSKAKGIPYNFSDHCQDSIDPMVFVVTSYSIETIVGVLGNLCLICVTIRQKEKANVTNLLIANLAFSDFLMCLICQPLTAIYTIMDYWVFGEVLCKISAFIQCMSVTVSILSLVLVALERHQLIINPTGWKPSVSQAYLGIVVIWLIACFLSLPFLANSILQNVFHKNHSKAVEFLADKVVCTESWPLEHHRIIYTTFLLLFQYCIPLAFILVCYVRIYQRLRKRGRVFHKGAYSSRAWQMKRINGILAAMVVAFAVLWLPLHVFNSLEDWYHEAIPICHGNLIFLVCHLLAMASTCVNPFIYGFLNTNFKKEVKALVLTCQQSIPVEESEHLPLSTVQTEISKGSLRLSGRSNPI
Chain of Neuropeptide Y receptor type 4 (Rattus norvegicus, UniProt Q63447) (Q63447 whole entry): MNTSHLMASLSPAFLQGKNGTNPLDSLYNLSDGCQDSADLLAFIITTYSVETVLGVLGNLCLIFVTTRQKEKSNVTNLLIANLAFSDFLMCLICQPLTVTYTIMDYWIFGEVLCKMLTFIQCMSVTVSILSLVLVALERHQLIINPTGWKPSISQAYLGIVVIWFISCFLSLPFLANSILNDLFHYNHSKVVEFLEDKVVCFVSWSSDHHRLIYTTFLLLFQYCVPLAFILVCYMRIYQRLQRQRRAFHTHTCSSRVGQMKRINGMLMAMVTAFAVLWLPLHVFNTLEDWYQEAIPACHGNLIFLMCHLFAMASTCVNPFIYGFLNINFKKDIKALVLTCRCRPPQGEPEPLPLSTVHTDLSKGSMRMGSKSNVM
Chain of Neuropeptide Y receptor type 4 (Homo sapiens, UniProt P50391) (P50391 whole entry C240R): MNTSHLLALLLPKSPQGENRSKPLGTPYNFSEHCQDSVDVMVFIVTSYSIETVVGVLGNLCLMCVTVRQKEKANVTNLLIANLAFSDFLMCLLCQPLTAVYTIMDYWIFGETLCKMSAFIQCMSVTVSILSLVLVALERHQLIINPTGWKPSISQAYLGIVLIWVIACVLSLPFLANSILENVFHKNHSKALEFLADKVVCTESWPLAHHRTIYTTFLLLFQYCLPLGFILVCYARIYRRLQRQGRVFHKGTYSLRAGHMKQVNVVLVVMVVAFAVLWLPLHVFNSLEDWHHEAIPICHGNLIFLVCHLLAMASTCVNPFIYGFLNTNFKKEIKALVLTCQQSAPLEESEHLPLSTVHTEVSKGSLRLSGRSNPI

For the molecule `CC[C@H](C)[C@H](NC(=O)[C@H](Cc1ccc(O)cc1)NC(=O)[C@H](CCCNC(=N)N)NC(=O)[C@H](CCCNC(=N)N)NC(=O)[C@H](CC(C)C)NC(=O)[C@H](CC(=O)O)NC(=O)[C@H](C)NC(=O)[C@H](C)NC(=O)[C@H](Cc1ccc(O)cc1)NC(=O)[C@H](CCC(N)=O)NC(=O)[C@H](C)NC(=O)[C@H](CCSC)NC(=O)[C@H](CCC(N)=O)NC(=O)[C@H](CCC(=O)O)NC(=O)[C@@H]1CCCN1C(=O)[C@@H](NC(=O)[C@H](C)NC(=O)[C@H](CC(N)=O)NC(=O)[C@H](CC(=O)O)NC(=O)CNC(=O)[C@@H]1CCCN1C(=O)[C@H](Cc1ccc(O)cc1)NC(=O)[C@@H](NC(=O)[C@@H]1CCCN1C(=O)[C@H](CCC(=O)O)NC(=O)[C@H](CC(C)C)NC(=O)[C@@H]1CCCN1C(=O)[C@H](C)N)C(C)C)[C@@H](C)O)C(=O)N[C@@H](CC(N)=O)C(=O)N[C@@H](CCSC)C(=O)N[C@@H](CC(C)C)C(=O)N[C@H](C(=O)N[C@@H](CCCNC(=N)N)C(=O)N1CCC[C@H]1C(=O)N[C@@H](CCCNC(=N)N)C(=O)N[C@@H](Cc1ccc(O)cc1)C(N)=O)[C@@H](C)O` [CAS_59763-91-6], the affinity in assay [1] corresponds to a Ki of 0.031 nM.
For `CC[C@H](C)[C@H](NC(=O)[C@H](Cc1ccc(O)cc1)NC(=O)[C@H](CCCNC(=N)N)NC(=O)[C@H](CCCNC(=N)N)NC(=O)[C@H](CC(C)C)NC(=O)[C@H](CCC(N)=O)NC(=O)[C@@H](NC(=O)[C@H](CCC(=O)O)NC(=O)[C@H](Cc1ccc(O)cc1)NC(=O)[C@H](CCC(N)=O)NC(=O)[C@H](C)NC(=O)[C@H](CCCNC(=N)N)NC(=O)[C@H](CCC(N)=O)NC(=O)[C@H](CCC(=O)O)NC(=O)[C@H](Cc1c[nH]cn1)NC(=O)[C@@H](NC(=O)[C@H](C)NC(=O)[C@H](Cc1ccc(O)cc1)NC(=O)[C@H](CC(=O)O)NC(=O)CNC(=O)[C@@H]1CCCN1C(=O)[C@H](Cc1ccc(O)cc1)NC(=O)[C@H](CCSC)NC(=O)[C@@H]1CCCN1C(=O)[C@H](CCC(=O)O)NC(=O)[C@H](CC(C)C)NC(=O)[C@@H]1CCCN1C(=O)[C@H](C)N)[C@@H](C)O)[C@@H](C)O)C(=O)N[C@@H](CC(N)=O)C(=O)N[C@H](C(=O)N[C@@H](CC(C)C)C(=O)N[C@H](C(=O)N[C@@H](CCCNC(=N)N)C(=O)N1CCC[C@H]1C(=O)N[C@@H](CCCNC(=N)N)C(=O)N[C@@H](Cc1ccc(O)cc1)C(N)=O)[C@@H](C)O)[C@@H](C)O` [NSC_41735], the Ki (in general, a dissociation constant, usually derived from enzyme kinetics or from competition with a known ligand) in assay [2] was 2.7 pM; in assay [1], 0.044 nM; in assay [3], 0.071 nM.
For “H-APLEPEYPGDNATPEQMAQYAAELRRYINMLTRPRY-NH2 [CAS_59763-91-6]”, in that order: 6 pM, 0.013 nM and 0.031 nM.
